Laboratory results published in ChEMBL document CHEMBL2074230, “Interaction and transport of thiazide diuretics, loop diuretics, and acetazolamide via rat renal organic anion transporter rOAT1” (J Pharmacol Exp Ther, 2000).

How the values were obtained:
[1] = biological target: T1, Solute carrier family 22 member 6 (Rattus norvegicus, UniProt O35956); test: TP_TRANSPORTER: inhibition of PAH uptake in Xenopus laevis oocytes; type: functional, cell-based, Oocyte; conditions: for Activity: xenopus laevis, oocyte
T1 sequence (O35956 whole entry): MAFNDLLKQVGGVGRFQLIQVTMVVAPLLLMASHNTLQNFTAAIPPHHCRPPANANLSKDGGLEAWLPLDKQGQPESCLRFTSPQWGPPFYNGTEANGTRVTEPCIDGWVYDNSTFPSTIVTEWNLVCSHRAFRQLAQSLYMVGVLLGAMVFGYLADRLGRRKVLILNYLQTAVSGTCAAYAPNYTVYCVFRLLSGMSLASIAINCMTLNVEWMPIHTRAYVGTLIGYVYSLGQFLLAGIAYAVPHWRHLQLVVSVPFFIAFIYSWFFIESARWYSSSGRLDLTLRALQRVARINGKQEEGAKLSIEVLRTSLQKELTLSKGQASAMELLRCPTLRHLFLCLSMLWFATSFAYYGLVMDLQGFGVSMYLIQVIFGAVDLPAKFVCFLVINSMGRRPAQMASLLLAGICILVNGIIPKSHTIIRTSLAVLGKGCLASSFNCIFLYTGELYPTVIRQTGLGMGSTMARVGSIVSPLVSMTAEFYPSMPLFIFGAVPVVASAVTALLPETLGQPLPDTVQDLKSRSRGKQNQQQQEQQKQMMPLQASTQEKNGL

[2] = biological target: T1, Solute carrier family 22 member 6; test: TP_TRANSPORTER: uptake in Xenopus laevis oocytes; type: functional, cell-based; conditions: oocyte
[3] = substrate: Nc1ccc(C(=O)NCC(=O)O)cc1; test: cells, lysate or membranes named

Molecule: CC(=O)Nc1nnc(S(N)(=O)=O)s1 [ACETAZOLAMIDE]
- Ki [1]: 1100 µM
- Activity [2]: substrate [+]

Molecule: CCCCNc1cc(C(=O)O)cc(S(N)(=O)=O)c1Oc1ccccc1 [BUMETANIDE]
- Ki [1]: 5.5 µM

Molecule: NS(=O)(=O)c1cc2c(cc1Cl)N=CNS2(=O)=O [CHLOROTHIAZIDE]
- Activity [1]: inhibitor [+]

Molecule: NS(=O)(=O)c1cc2c(cc1Cl)NC(C1CC3C=CC1C3)NS2(=O)=O (stereo unspecified) [CYCLOTHIAZIDE]
- Activity [1]: inhibitor [+]

Molecule: CCOc1ccc2nc(S(N)(=O)=O)sc2c1 [ETHOXZOLAMIDE]
- Activity [1]: inhibitor [+]

Molecule: NS(=O)(=O)c1cc(C(=O)O)c(NCc2ccco2)cc1Cl [FUROSEMIDE]
- Ki [1]: 9.5 µM
- Activity [2]: substrate [+]

Molecule: NS(=O)(=O)c1cc2c(cc1Cl)NCNS2(=O)=O [HYDROCHLOROTHIAZIDE]
- Ki [1]: 150 µM

Molecule: CC(=O)/N=c1/sc(S(N)(=O)=O)nn1C [METHAZOLAMIDE]
- Activity [1]: inhibitor [+]

B1: Solute carrier family 22 member 6 (Rattus norvegicus) (protein)
chain: T1 sequence (O35956 whole entry)
- Km [3]: 31 µM
